From PubChem BioAssay AID1996 come the findings set out here.

Converted amounts (≈) assume the structure as drawn. Some results are limits rather than exact numbers.

The conditions of this data set: buffer; pH 7.4; 200.0 µM.
Usually kinetic solubility stands for solubility judged after dilution from a stock solution rather than from solid. `CCOc1ccc(C(CC(=O)O)NC(=O)C(CC)c2ccccc2)cc1` (stereo not drawn) came in with a kinetic solubility of 47.9 µg/mL (≈ 135 µM). In the case of `CN(C(=O)COC(=O)c1ccc2ccccc2n1)C1CCCCC1` it was greater than 49 µg/mL; in that of `O=C(O)c1sccc1NC(=O)c1c(Cl)cccc1Cl`, greater than 47.4 µg/mL.

Take `OC(COc1ccc(Cl)cc1)CSc1ccccn1` (stereo not drawn): the kinetic solubility amounted to 37.5 µg/mL (≈ 127 µM). In the case of `CC(=O)Nc1ccc(NC(=O)CC2CCCC2)cc1` it was greater than 39.1 µg/mL. Compound `Cc1ccccc1SCC(=O)OCC(=O)N1CC(=O)Nc2ccccc21` registered a solubility (kinetic) of 11.6 µg/mL (≈ 31.3 µM). The compound `CCCc1cc(=O)oc2cc(OCC(=O)N3CCOCC3)c(Cl)cc12` displayed a solubility (kinetic) of 3.8 µg/mL (≈ 10.4 µM). `CCCC(=O)OCC(=O)Nc1ccc2c(c1)OCO2` had a solubility (kinetic) of 37.2 µg/mL (≈ 140 µM). Next, `CC(CNC(=O)CCc1ccccc1)NC(=O)CCc1ccccc1` (stereo not drawn): 19 µg/mL (≈ 56.1 µM); `COC(=O)C(NC(=O)C(C)NC(=O)OCc1ccccc1)C(C)C` (stereo not drawn): greater than 50.5 µg/mL.

`Cc1ccc(NC(=O)C2CCCN(c3nccc(C)n3)C2)c(C)c1` (stereo not drawn) yielded a solubility (kinetic) of 2.2 µg/mL (≈ 6.78 µM). In turn, `O=[N+]([O-])c1ccc(Cl)cc1NCc1cccnc1` registered a solubility (kinetic) greater than 39.6 µg/mL. Next, `O=c1[nH]c(=O)n(CC2CCCO2)c(O)c1/C=C1\C=Nc2ccccc21` (stereo not drawn): greater than 50.9 µg/mL; `CC1(NC(=O)Nc2cccc(Br)c2)CCS(=O)(=O)C1` (stereo not drawn): greater than 52.1 µg/mL; `Cc1cccc(NC(=O)C2CCCCN2S(=O)(=O)c2ccccc2)c1C` (stereo not drawn): 45.1 µg/mL (≈ 121 µM). `COCCCNC(=O)C(=O)NC1CCCCC1C` (stereo not drawn) yielded a solubility (kinetic) greater than 38.5 µg/mL. `Cc1nc(COc2ccccc2Cl)sc1-c1ccnc(N)n1` registered a kinetic solubility of 1.2 µg/mL (≈ 3.61 µM). In the case of `O=[N+]([O-])c1cccc(S(=O)(=O)N2CCCCC2)c1` it was 37.5 µg/mL (≈ 139 µM); in that of `Cc1ccc(NC(=O)Cc2ccc(-c3ccccc3)cc2)nc1`, 5.7 µg/mL (≈ 18.9 µM). Next, `Cc1cc2c(=O)n(C)c(SCC(=O)Nc3cccc(F)c3)nc2s1`: less than 0.3 µg/mL. In the case of `O=[N+]([O-])c1ccc(C2=CSC3=NCCN23)cc1` it was 31.2 µg/mL (≈ 126 µM); in that of `CC(C)(C)S(=O)(=O)c1cnc(N2CCOCC2)nc1N`, 32.8 µg/mL (≈ 109 µM). `CCn1c(C)c(C)c2cc(C(=O)N3CCCC3)ccc21` registered a kinetic solubility greater than 40.6 µg/mL. Take `Cc1ccc(Cl)cc1N1C(=O)CC(Sc2ncccn2)C1=O` (stereo not drawn): the kinetic solubility is greater than 50.1 µg/mL. With `Cc1ccnc(S(=O)(=O)Cc2ccc([N+](=O)[O-])cc2)n1`, the solubility (kinetic) was greater than 44 µg/mL. In the case of `CCOc1cc(C)c(S(=O)(=O)NCCCn2ccnc2)cc1C` it was 41.2 µg/mL (≈ 122 µM); in that of `COc1ccc(CCNCc2ccccc2F)cc1.O=C(O)C(=O)O`, 46.4 µg/mL; in that of `CCc1ccc(C(=O)COC(=O)c2cnc(C)cn2)cc1`, greater than 42.6 µg/mL.

On to `CCN(CC)c1ccc(NC(=O)CCCCC(=O)Nc2ccc(N(CC)CC)cc2)cc1`, for which the solubility (kinetic) was 0.4 µg/mL (≈ 0.912 µM). The compound `O=C(NC1CC1)C1CC(=O)N(c2cccc(Cl)c2)C1` (stereo not drawn) showed a kinetic solubility greater than 41.8 µg/mL.

For `O=C(O)c1ccc(Cl)c(NCc2ccncc2)c1`, the kinetic solubility was greater than 39.4 µg/mL. In the case of `COc1ccc(N2CCN(CC(=O)Nc3nc(C)cs3)CC2)cc1` it was 49.6 µg/mL (≈ 143 µM); in that of `O=C1/C(=C/c2ccncc2)N2CCC1CC2`, greater than 32.1 µg/mL; in that of `CN(C(=O)CSc1nnc(-c2ccc(F)cc2)n1C)C1CCS(=O)(=O)C1` (stereo not drawn), greater than 59.8 µg/mL. `COc1cc(C)ccc1OCCON1C(=O)CCC1=O`: the solubility (kinetic) is greater than 41.9 µg/mL.

In the case of `COc1cc(OC)cc(C(=O)NCc2ccc(-n3cccc3)cc2)c1`, the solubility (kinetic) was 0.4 µg/mL (≈ 1.19 µM). With `Cc1cnc(NC(=O)[C@H](C)N2C(=O)C3CCCCC3C2=O)s1` (stereo partly drawn), the solubility (kinetic) was greater than 48.2 µg/mL. `Cn1c(O)c(C(=Nc2ccc(F)cc2)c2ccccc2)c(=O)n(C)c1=O` showed a kinetic solubility of 7.4 µg/mL (≈ 20.9 µM). As to `CC(C)CNC(=O)CSc1nnc2ccccn12`, the solubility (kinetic) is greater than 39.7 µg/mL. As to `COc1ccc(CNC(=O)c2c[nH]c3ccccc3c2=O)cc1`, the solubility (kinetic) worked out at 4.1 µg/mL (≈ 13.3 µM). `O=C1c2ccccc2NC(c2ccc(Br)s2)N1O` (stereo not drawn) gave a kinetic solubility of 37.5 µg/mL (≈ 115 µM). For the compound `C[C@@H](NCCc1ccc(O)cc1)[C@@H](O)c1ccc(O)cc1.Cl`, the kinetic solubility was greater than 48.6 µg/mL. Consider `Cc1csc2c(NC3CCN(Cc4ccccc4)CC3)ncnc12`, for which the solubility (kinetic) was determined as 41.5 µg/mL (≈ 123 µM). In turn, `O=C(COC(=O)c1ccc([N+](=O)[O-])o1)NC1CCCCC1` had a solubility (kinetic) greater than 44.4 µg/mL.

For `Cc1ccc(C)c(S(=O)(=O)NC(C)C(=O)NCc2ccccn2)c1` (stereo not drawn), the kinetic solubility is greater than 52.1 µg/mL. Consider `Cc1ccc(CNC(=O)C2CCCN2C(=O)Nc2ccc(C)cc2)cc1` (stereo not drawn), for which the kinetic solubility worked out at 11.4 µg/mL (≈ 32.4 µM). Take `O=C(Nc1ccc(Oc2cccnc2)nc1)c1ccc(C(F)(F)F)cc1`: the solubility (kinetic) was 10.3 µg/mL (≈ 28.7 µM). `Cc1ccc2c(c1)N(CC(=O)Nc1nccs1)C(=O)CO2` displayed a kinetic solubility of 1.3 µg/mL (≈ 4.29 µM).

For the compound `COc1cc2c(C#N)c(N3CCc4ccccc4C3)nc(N)c2c(N)n1`, the solubility (kinetic) stood at 1.6 µg/mL (≈ 4.62 µM). `O=C(COC(=O)c1cccc(S(=O)(=O)N2CCOCC2)c1)NCc1ccc2c(c1)OCO2` showed a kinetic solubility of 66.8 µg/mL (≈ 144 µM). The compound `CCCCOc1ccc(Cc2c(O)nc(SC)[nH]c2=O)cc1` displayed a kinetic solubility of 20 µg/mL (≈ 62.4 µM). `O=C(Nc1cccc(F)c1)c1c(O)c2cccc3c2n(c1=O)CCC3` had a solubility (kinetic) of less than 0.4 µg/mL. `O=S(=O)(c1ccccc1)c1nc(-c2ccccc2)oc1N1CCCC1` registered a kinetic solubility of 1.3 µg/mL (≈ 3.67 µM). Next, `CN(Cc1c(F)cccc1Cl)C(=O)CCc1c[nH]c2ccccc12`: 11.9 µg/mL (≈ 34.5 µM); `Cc1ccc(CN2C(=O)c3ccccc3NC2c2ccccn2)cc1` (stereo not drawn): greater than 49.4 µg/mL. In the case of `O=C(O)CC(SCC(=O)NC1CCCc2ccccc21)C(=O)O` (stereo not drawn) it was greater than 50.6 µg/mL. `O=C(Nc1ccc2ccccc2n1)Nc1cccs1`: the kinetic solubility is less than 0.2 µg/mL. The compound `O=C(Nc1nc2ccccc2[nH]1)c1ccccc1[N+](=O)[O-]` registered a kinetic solubility greater than 42.3 µg/mL. Compound `COc1ccc(C(=O)Nc2cccnc2Cl)cc1OC` returned a kinetic solubility of 42.5 µg/mL (≈ 145 µM). Next, `O=C(NCCCNC(=O)c1ccco1)c1ccc(Cl)c(Cl)c1`: 44.2 µg/mL (≈ 130 µM). Next, `Cc1ccc(NC(=O)c2ccc(OCc3c(C)noc3C)cc2)cc1C`: 6.7 µg/mL (≈ 19.1 µM). In turn, `CCOc1ncccc1C(=O)Nc1ccc(S(=O)(=O)Nc2cc(C)nc(C)n2)cc1` came in with a kinetic solubility greater than 64.1 µg/mL. In the case of `Cc1ccc2ncnc(Nc3ccccc3)c2c1` it was 11.6 µg/mL (≈ 49.3 µM); in that of `CCN(c1ccc(NC(=O)CSc2ccc3c(c2)OCCO3)cc1)C(C)C`, 4.4 µg/mL (≈ 11.4 µM).

As for `CC(=O)Nc1ccc(OCc2ccc3c(c2)OCO3)cc1`, the solubility (kinetic) was 15.4 µg/mL (≈ 54 µM). On to `COc1ccc(NC(=O)N2CCCC2C(=O)NC2CCCC2)cc1` (stereo not drawn), for which the solubility (kinetic) is greater than 49.7 µg/mL. With `COc1ccccc1CNC(=O)COC(=O)c1ccc(C(=O)c2ccccc2)cc1`, the solubility (kinetic) was found to be 8.2 µg/mL (≈ 20.3 µM).

Take `Cl.NCCNc1ccc([N+](=O)[O-])cc1`: the solubility (kinetic) was greater than 32.6 µg/mL.

`COc1cc(C2NC(=O)CCC2[N+](=O)[O-])cc(OC)c1OC` (stereo not drawn) displayed a solubility (kinetic) greater than 46.5 µg/mL.

For the compound `Cc1noc(NS(=O)(=O)c2ccc(N)cc2)c1C`, the solubility (kinetic) is greater than 40.1 µg/mL.

In turn, `S=C(NCc1ccc(Cl)cc1)Nc1ccncc1` gave a kinetic solubility greater than 41.7 µg/mL. In turn, `C=C(C)CN(CC)c1ccc(N2C(=O)CCCC2=O)cc1[N+](=O)[O-]` returned a kinetic solubility of 17.8 µg/mL (≈ 53.7 µM). Take `Cc1cc(C)nc(SCc2ccc(Cl)cc2)n1`: the kinetic solubility is 0.6 µg/mL (≈ 2.27 µM).

On to `O=S(=O)(Nc1ccc(N2CCCCC2)cc1)c1ccccc1F`, for which the solubility (kinetic) came out at 12 µg/mL (≈ 35.9 µM). Take `CCNc1nc(NCC)nc(Oc2ccc(C(=O)OC)cc2)n1`: the solubility (kinetic) worked out at 2.8 µg/mL (≈ 8.82 µM).

On to `COc1cccc2c1Oc1cc([N+](=O)[O-])cc(N(C)C(C)=O)c1C=C2`, for which the kinetic solubility stood at 38.2 µg/mL (≈ 112 µM). Regarding `Cc1nc(C(F)(F)F)ccc1C(=O)NN1CCOCC1`, the kinetic solubility is greater than 43.4 µg/mL. Next, `COc1ccccc1C(=O)NC1CCN(C(=O)Nc2ccc(C)cc2)CC1`: 46.8 µg/mL (≈ 127 µM). In the case of `Cc1ccc(S(=O)(=O)N(C)c2ccc(OCC(=O)OCc3ccc(C#N)cc3)cc2)cc1` it was 8.4 µg/mL (≈ 18.6 µM); in that of `CCCCN(C)C(=O)c1cc2cc3ccc(OC)cc3nc2o1`, 14.5 µg/mL (≈ 46.4 µM). Take `Cc1nc(N2CCN(Cc3ccc4c(c3)OCO4)CC2)[nH]c(=O)c1C`: the kinetic solubility is greater than 51.4 µg/mL. Consider `COc1ccccc1C1CCN(c2ccc([N+](=O)[O-])c(OC)c2)CC1`, for which the solubility (kinetic) was less than 0.4 µg/mL.

Regarding `CC1Cc2ccccc2N1S(=O)(=O)c1ccc(Cl)nc1` (stereo not drawn), the solubility (kinetic) was 1.9 µg/mL (≈ 6.15 µM). For `CCN(C(=O)COC(=O)c1[nH]c(=O)[nH]c(=O)c1N)c1ccccc1`, the solubility (kinetic) was found to be 39.3 µg/mL (≈ 118 µM). In the case of `Cc1c(C(=O)N2CCC2)oc2c(F)cccc12` it was 30.3 µg/mL (≈ 130 µM); in that of `[O-][n+]1c2ccccc2[n+]([O-])c2cc(O)ccc21`, greater than 34.2 µg/mL; in that of `Cc1cc2oc(=O)cc(CN(C)Cc3cccc(F)c3)c2cc1C`, 1.2 µg/mL (≈ 3.69 µM). In the case of `O=C(NCCCCc1ccccc1)c1ccccc1F` it was greater than 40.7 µg/mL.

Compound `Nc1cc(C(=O)OCC(=O)NCCCc2ccccc2)ccc1Cl` had a solubility (kinetic) of 10.5 µg/mL (≈ 30.3 µM). For the compound `Cl.OC(CNCc1cccc(Br)c1)c1ccccc1` (stereo not drawn), the kinetic solubility amounted to 48.1 µg/mL. Compound `Cc1ccc(CCN2CC(C(=O)NC(C)C)CC2=O)cc1` (stereo not drawn) had a kinetic solubility greater than 43.3 µg/mL. For the compound `COc1ccccc1CC(=O)N1CCN(c2ccccc2)CC1`, the solubility (kinetic) was greater than 46.6 µg/mL.

The compound `O=C1NC(=O)/C(=C/c2ccccc2Cl)N1` gave a solubility (kinetic) of 17.8 µg/mL (≈ 80 µM). `C=CCNC(=O)c1cnn(-c2ccccc2)c1-c1ccccc1` yielded a solubility (kinetic) greater than 45.5 µg/mL.

`Cc1ccc(NC(=O)CN2CCOCC2)cc1` gave a kinetic solubility greater than 35.1 µg/mL. As for `Cc1ccc(-c2nc3ccccn3c2C=O)cc1`, the kinetic solubility came to 8.5 µg/mL (≈ 36 µM). Next, `Cc1ccc(NC(=O)c2c(-c3ccccc3Cl)noc2C)nc1`: 0.3 µg/mL (≈ 0.915 µM); `O=C(COC(=O)c1ccc(Br)cc1)NCC1CCCO1` (stereo not drawn): greater than 51.3 µg/mL; `CC(NS(=O)(=O)c1ccccc1)C(=O)NCCc1ccccn1` (stereo not drawn): greater than 50 µg/mL. Next, `COc1ccccc1NC(=O)/C=C/C(=O)O`: greater than 33.2 µg/mL; `CC(=O)c1cccc(NC(=O)c2ccc3c(c2)OCO3)c1`: 2.2 µg/mL (≈ 7.77 µM). On to `CCCCOc1nc(N2CCOCC2)nc(C)c1[N+](=O)[O-]`, for which the solubility (kinetic) was 1.5 µg/mL (≈ 5.06 µM). As for `Cc1cc2nc(C(C)(C)C)cc(N)n2n1`, the solubility (kinetic) was greater than 30.6 µg/mL.
